{"source": "patent US20110275649A1", "about": "“Combination therapy for the prevention of statin induced diabetes” (Palmetto Pharmaceuticals LLC, priority 2010, published 2011)", "origin": "cited, not measured here", "key": {"[1]": {"details": "compared with pravastatin"}, "[2]": {"tested_on": "carnitine palmitoyltransferase-1: CPT-1", "details": "in vitro studies; e.g. by inhibition of CPT-1"}, "CYP3A4": {"molecular_target": "CYP3A4 (Homo sapiens, UniProt P08684)", "sequence (P08684 whole entry)": "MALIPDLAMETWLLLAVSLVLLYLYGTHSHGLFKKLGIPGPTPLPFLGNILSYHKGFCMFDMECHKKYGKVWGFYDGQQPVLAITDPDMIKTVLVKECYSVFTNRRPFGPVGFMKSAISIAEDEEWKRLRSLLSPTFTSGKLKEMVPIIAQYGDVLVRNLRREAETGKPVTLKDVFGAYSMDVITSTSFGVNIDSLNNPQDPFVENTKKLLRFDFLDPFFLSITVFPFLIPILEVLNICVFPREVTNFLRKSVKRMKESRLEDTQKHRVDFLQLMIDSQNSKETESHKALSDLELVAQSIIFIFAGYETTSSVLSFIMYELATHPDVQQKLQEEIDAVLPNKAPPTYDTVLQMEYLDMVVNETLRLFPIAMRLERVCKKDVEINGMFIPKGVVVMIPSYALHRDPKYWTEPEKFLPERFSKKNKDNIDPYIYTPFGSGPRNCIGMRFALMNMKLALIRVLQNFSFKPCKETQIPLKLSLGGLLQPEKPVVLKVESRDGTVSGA"}, "late sodium channel": {"molecular_target": "late sodium channel (Homo sapiens, UniProt Q14524)", "sequence (Q14524 whole entry)": "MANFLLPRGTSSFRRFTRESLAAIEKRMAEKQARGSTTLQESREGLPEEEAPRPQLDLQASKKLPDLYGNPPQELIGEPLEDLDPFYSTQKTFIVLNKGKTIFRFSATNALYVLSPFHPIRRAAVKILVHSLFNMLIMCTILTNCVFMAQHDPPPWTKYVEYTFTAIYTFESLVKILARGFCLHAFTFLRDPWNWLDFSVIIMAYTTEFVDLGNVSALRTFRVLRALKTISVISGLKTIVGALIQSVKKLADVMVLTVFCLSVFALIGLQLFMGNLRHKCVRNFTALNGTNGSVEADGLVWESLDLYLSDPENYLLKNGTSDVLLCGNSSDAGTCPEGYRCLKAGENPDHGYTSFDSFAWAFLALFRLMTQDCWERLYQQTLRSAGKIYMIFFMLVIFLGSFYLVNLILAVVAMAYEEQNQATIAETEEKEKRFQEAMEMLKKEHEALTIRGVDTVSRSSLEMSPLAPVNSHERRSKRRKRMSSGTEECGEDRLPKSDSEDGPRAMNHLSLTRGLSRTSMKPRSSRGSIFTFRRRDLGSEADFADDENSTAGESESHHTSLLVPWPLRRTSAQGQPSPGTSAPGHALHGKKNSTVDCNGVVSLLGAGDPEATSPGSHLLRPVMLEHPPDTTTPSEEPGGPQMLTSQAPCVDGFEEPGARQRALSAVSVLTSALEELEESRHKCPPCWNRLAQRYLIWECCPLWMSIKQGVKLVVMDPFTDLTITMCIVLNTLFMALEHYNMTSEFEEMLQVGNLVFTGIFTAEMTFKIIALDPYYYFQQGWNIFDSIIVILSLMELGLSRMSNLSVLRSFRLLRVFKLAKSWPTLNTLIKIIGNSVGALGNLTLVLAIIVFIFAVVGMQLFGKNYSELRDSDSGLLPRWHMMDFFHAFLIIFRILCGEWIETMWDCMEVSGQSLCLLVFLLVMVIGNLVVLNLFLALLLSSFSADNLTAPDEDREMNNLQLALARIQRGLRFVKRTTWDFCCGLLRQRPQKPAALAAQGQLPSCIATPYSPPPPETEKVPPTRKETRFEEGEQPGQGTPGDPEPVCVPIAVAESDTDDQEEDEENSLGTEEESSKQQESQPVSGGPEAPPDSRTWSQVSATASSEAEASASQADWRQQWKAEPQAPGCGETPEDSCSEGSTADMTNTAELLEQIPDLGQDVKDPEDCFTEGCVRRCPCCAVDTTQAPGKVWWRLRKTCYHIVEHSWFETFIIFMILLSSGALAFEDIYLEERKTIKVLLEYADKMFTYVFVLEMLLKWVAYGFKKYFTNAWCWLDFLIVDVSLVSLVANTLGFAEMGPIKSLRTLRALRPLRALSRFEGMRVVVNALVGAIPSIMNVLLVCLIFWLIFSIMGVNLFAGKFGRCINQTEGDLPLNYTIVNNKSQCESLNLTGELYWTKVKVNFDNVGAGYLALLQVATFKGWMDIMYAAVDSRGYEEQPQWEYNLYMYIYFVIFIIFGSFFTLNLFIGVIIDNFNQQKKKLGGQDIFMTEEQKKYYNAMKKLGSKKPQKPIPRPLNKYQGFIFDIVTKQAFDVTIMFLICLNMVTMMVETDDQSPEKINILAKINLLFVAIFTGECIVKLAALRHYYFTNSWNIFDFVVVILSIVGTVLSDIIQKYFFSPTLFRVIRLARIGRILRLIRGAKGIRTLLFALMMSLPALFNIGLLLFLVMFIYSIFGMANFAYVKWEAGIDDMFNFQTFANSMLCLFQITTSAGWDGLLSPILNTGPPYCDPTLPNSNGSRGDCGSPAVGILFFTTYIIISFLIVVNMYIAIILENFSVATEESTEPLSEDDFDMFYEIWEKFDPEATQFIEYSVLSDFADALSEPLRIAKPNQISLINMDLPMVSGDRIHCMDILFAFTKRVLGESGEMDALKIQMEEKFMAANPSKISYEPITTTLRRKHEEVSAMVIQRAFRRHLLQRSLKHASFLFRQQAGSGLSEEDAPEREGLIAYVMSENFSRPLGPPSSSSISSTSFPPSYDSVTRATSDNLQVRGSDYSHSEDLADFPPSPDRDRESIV"}, "[3]": {"details": "JUPITER trial"}, "[4]": {"tested_on": "3-keto-CoA-thiolase, or 3-KAT"}}}
{"smiles": "CC(C)c1c(C(=O)Nc2ccccc2)c(-c2ccccc2)c(-c2ccc(F)cc2)n1CC[C@@H](O)C[C@@H](O)CC(=O)O", "note": "[atorvastatin]", "values": [{"measurement": "likelihood to induce diabetes", "setting": "[1]", "value": "much more likely to induce diabetes than pravastatin"}]}
{"smiles": "C1CCC(C(CC2CCCCN2)C2CCCCC2)CC1", "note": "(stereo not drawn) [perhexiline]", "values": [{"measurement": "myocardial fatty acid catabolism", "setting": "[2]", "value": "causes inhibition of myocardial fatty acid catabolism"}]}
{"smiles": "O=C(O)C[C@H](O)C[C@H](O)/C=C/c1c(C2CC2)nc2ccccc2c1-c1ccc(F)cc1", "note": "[pitavastatin]", "values": [{"measurement": "metabolism by CYP3A4", "setting": "CYP3A4", "value": "does not undergo metabolism by the 3A4 system"}]}
{"smiles": "CC[C@H](C)C(=O)O[C@H]1C[C@H](O)C=C2C=C[C@H](C)[C@H](CC[C@@H](O)C[C@@H](O)CC(=O)O)[C@H]21", "note": "[pravastatin]", "values": [{"measurement": "lipid / water solubility", "value": "water soluble"}]}
{"smiles": "COc1ccccc1OCC(O)CN1CCN(CC(=O)Nc2c(C)cccc2C)CC1", "note": "(stereo not drawn) [ranolazine]", "values": [{"measurement": "late sodium channel inhibition", "setting": "late sodium channel", "value": "inhibits the late sodium channel"}, {"measurement": "arrhythmogenic events from QT prolongation", "setting": "QT interval; Merlin-TIMI 36", "value": "did not cause excess arrythmogenic events"}, {"measurement": "QT interval", "setting": "QT interval; in vivo", "value": "causes QT interval prolongation"}]}
{"smiles": "CC(C)c1nc(N(C)S(C)(=O)=O)nc(-c2ccc(F)cc2)c1/C=C/[C@@H](O)C[C@@H](O)CC(=O)O", "note": "[rosuvastatin]", "values": [{"measurement": "diabetes in the group receiving the statin", "setting": "[3]", "value": "increase in diabetes"}]}
{"smiles": "COc1ccc(CN2CCNCC2)c(OC)c1OC", "note": "[trimetazidine]", "values": [{"measurement": "inhibition of 3-KAT", "setting": "[4]", "value": "inhibition of the enzyme 3-keto-CoA-thiolase"}]}
